The values below come from patent US20250367157A1, “COMPOSITION FOR USE IN THE TREATMENT OF DISEASES ASSOCIATED WITH DYSFUNCTION OF MITOCHONDRIAE” (IUF LEIBNIZ-INSTITUT FÜR UMWELTMEDIZINISCHE FORSCHUNG GMBH, priority 2022, published 2025).

Assay [1] has as its system primary CSB-deficient human fibroblasts. The experiment in a line: RNA isolation and real-time PCR, CSB fibroblasts. Type of assay: cell-based. The note with it: Choline 100 mM, alone or combined. How it is done: (§1) 200 ng of purified RNA were used for cDNA synthesis using SuperScript reverse transcriptase (Thermo Fisher). Expression levels of the genes PKM1, PKM2, MT-ATP6, MT-ATP8, MT-ND1, MT-ND3, TFAM, SOD2, AKR1B1, HSPA2 and TFPI2 were analyzed using a CFX Connect Real-Time PCR detection system and SYBR Green Supermix (both from Bio-Rad). Expression levels of the genes mentioned above were normalized in comparison to the housekeeper genes 18S (for experiments with XPA-deficient fibroblasts) or β2-microglobulin (for experiments with CSB-deficient fibroblasts).
200 ng of purified RNA were used for cDNA synthesis using SuperScript reverse transcriptase (Thermo Fisher). Expression levels of selected genes were analyzed using a CFX Connect Real-Time PCR detection system and SYBR Green Supermix (both from Bio-Rad).
(In qPCR the cycle at which signal appears reflects the starting amount.)

Assay [2] deals with primary XPA-deficient human fibroblasts. Kind of assay: Apoptosis measurement (annexin V/propidium iodide flow cytometry). Type of assay: cell-based. Particulars: Cisplatin 50 μM, 24 hours, XPA Control vs XPA Cisplatin; FIG. 1 B. As to the method: Primary human fibroblasts obtained from Xeroderma pigmentosum group A (XPA) patients and Cockayne Syndrome group B (CSB) patients were purchased from Coriell Institute (USA). Normal human fibroblasts (NHF) were isolated from skin samples obtained from healthy age-matched donors undergoing skin surgery. Cells were grown in Dulbecco's Modified Eagle Medium (DMEM) supplemented with 1% glutamine, antibiotics/antimycotics (growth medium) and 15% fetal calf serum (FCS) at 37° C. in a humidified atmosphere containing 5% CO2. For experiments, cells were detached from culture flasks by treatment with 0.05% trypsin solution (5 min/37° C.). After blocking trypsin activity by adding growth medium with 10% FCS, cells were spun down, resuspended in growth medium (15% FCS) and plated in appropriate culture dishes. Cells were allowed to grow until they reached around 80% confluency. […] Next day, cells were treated with the compounds Choline Chloride (here called Choline), or Sodium Acetate (here called Acetate), or both of them (both compounds were purchased from Sigma-Aldrich). […] Cells were analyzed by using a FACSCanto flow cytometry system. The percentage of early apoptotic cells defined as annexin V (+) and propidium iodide (-) was determined.

Assay [3] shares this test system. The note with it: Choline 100 mM, Acetate 10 mM, alone or combined; FIG. 2 B, FIG. 7 B.
Assay [4] has the same test system. Kind of assay: RNA isolation and real-time PCR, XPA fibroblasts. It counts as cell-based. The note with it: 24 hours after UVB, Choline 100 mM, alone or combined; for RNA levels of PKM1, PKM2, MT-ATP6, MT-ATP8, SOD2, AKR1B1, HSPA2, TFPI2: Acetate 10 mM, FIG. 3; for RNA levels of CRYAB, HSPA2, ISYNA1: DMKG 10 mM, FIG. 9. As to the method:
as §1
200 ng of purified RNA were used for cDNA synthesis using SuperScript reverse transcriptase (Thermo Fisher). Expression levels of selected genes were analyzed using a CFX Connect Real-Time PCR detection system and SYBR Green Supermix (both from Bio-Rad). Expression levels of the selected genes were normalized in comparison to the housekeeper gene 18S.

Assay [5] relates to primary normal human dermal fibroblasts (NHF). Kind of assay: ATP immunofluorescence microscopy, NHF. Type of assay: cell-based. The note with it: Choline 100 mM, Acetate 10 mM, alone or combined.
Method: Primary NHF and XPA-deficient fibroblasts were grown on chamber glass slides (Sarstedt) in growth medium containing 15% FCS. 48 hours before UVB irradiation, medium was removed, cells were washed with PBS and received growth medium containing 1% FCS. 24 hours later, medium was removed, and cells received growth medium (1% FCS) containing Choline (100 mM) and Acetate (10 mM). Control cells received normal growth medium supplied with 1% FCS. 24 hours later, medium was removed, cells were washed with PBS and were irradiated with UVB in fresh PBS. Unirradiated control (Sham) cells grown in a second chamber were treated essentially equal but were not exposed to UVB. After irradiation, PBS was removed, and cells were treated with Choline/Acetate or control growth medium. 24 hours later, medium was removed, cells were washed with PBS and fixed with 2% paraformaldehyde. For immunofluorescence staining of ATP and the ATP5A subunit of the mitochondrial ATP synthase, cells were permeabilized with PBS containing 0.1% Triton X-100 and incubated with an anti-ATP antibody raised in rabbit (MyBioSource) and an anti-ATP5A antibody raised in mouse (Abcam) overnight at 4° C. […] Cells were incubated with anti-mouse and anti-rabbit secondary antibodies either labeled with a green (Alexa Fluor 488, Thermo Fisher) or with a red fluorescence dye (Alexa Fluor 594, Thermo Fisher) for 2 hours at room temperature. […] Slides were mounted using an anti-fade mounting medium (Southern Biotech) and analyzed with a fluorescence microscope (Zeiss).
As described herein above for FIG. 2 B, further primary normal human dermal fibroblasts (NHF) and XPA-deficient fibroblasts were grown on chamber glass slides (Sarstedt) in growth medium containing 15% FCS. […] Cells were incubated with anti-mouse and anti-rabbit secondary antibodies either labeled with a green (Alexa Fluor 488, Thermo Fisher) or with a red fluorescence dye (Alexa Fluor 594, Thermo Fisher) for 2 hours at room temperature. […] Slides were mounted using an anti-fade mounting medium (Southern Biotech) and analyzed with a fluorescence microscope (Zeiss). […]
Assay [6] deals with primary CSB-deficient human fibroblasts. The note with it: Example 2.1; Sham and UVB; Choline 100 mM, Acetate 10 mM, alone or combined; FIG. 11.
Method: As described herein above for FIG. 2 B, primary NHF and CSB-deficient fibroblasts were grown on chamber glass slides (Sarstedt) in growth medium containing 15% FCS. 48 hours before UVB irradiation, medium was removed, cells were washed with PBS and received growth medium containing 1% FCS. 24 hours later, medium was removed, and cells received growth medium (1% FCS) containing either Choline (100 mM), Acetate (10 mM), or a combination of Choline (100 mM) and Acetate (10 mM) (Chol/Ac). Control cells received normal growth medium supplied with 1% FCS. 24 hours later, medium was removed, cells were washed with PBS and were irradiated with UVB (FIG. 11 B) in fresh PBS. Unirradiated control (Sham) cells (FIG. 11 A) grown in a second chamber were treated essentially equal but were not exposed to UVB. After irradiation, PBS was removed and cells were treated again with the respective compounds or control growth medium. 24 hours later, medium was removed, cells were washed with PBS and fixed with 2% paraformaldehyde. […] Cells were incubated with anti-mouse and anti-rabbit secondary antibodies either labeled with a green (Alexa Fluor 488, Thermo Fisher) or with a red fluorescence dye (Alexa Fluor 594, Thermo Fisher) for 2 hours at room temperature. […] Slides were mounted using an anti-fade mounting medium (Southern Biotech) and analyzed with a fluorescence microscope (Zeiss).
Assay [7] has as its system primary XPA-deficient human fibroblasts. The experiment in a line: Protein extraction and Western blot, XPA fibroblasts. Type of assay: cell-based. Particulars: Choline 100 mM alone or with Acetate 10 mM; FIG. 4 A. How it is done:
Histone samples were stored at −80° C.

On to `CCCCCCC(=O)OCC(COC(=O)CCCCCC)OC(=O)CCCCCC` [Triheptanoin], for which the “RNA levels of AKR1B1, SOD2” value in assay [1] (24 hours after UVB, Triheptanoin 100 μM, FIG. 13) is “only little or even no positive effect on the RNA level of AKR1B1, and SOD2”.
As for `N.N.[Cl][Pt][Cl]` [Cisplatin], in assay [2], the “apoptosis induction by the DNA-damaging agent alone” value was “increased apoptosis (cell death) induction”.
`CC(=O)[O-].[Na+]` [Acetate, Sodium Acetate]: in assay [1] (48 hours after UVB, Acetate 10 mM, FIG. 12), the “RNA levels of SOD2, HSPA2” value was “only little or even no effect on the RNA levels of the depicted genes”. In addition, the “cellular ATP levels (anti-ATP antibody staining)” value in assay [3] was “no effect on cellular ATP abundance when given alone”; in assay [5] (Example 2, FIG. 2 B, FIG. 7 A) it was “no effect on cellular ATP abundance when given alone”. Besides, the “RNA levels of PKM1, PKM2, MT-ATP6, MT-ATP8, SOD2, AKR1B1, HSPA2, TFPI2” value in assay [4] is reported as “does not increase RNA levels after UVB”.
In the case of `COC(=O)CCC(=O)C(=O)OC` [DMKG, Dimethyl-α-Ketoglutarate], the “RNA levels of CRYAB, HSPA2, ISYNA1” value in assay [4] is reported as “only little (or even no) effect on most RNA levels”.
In the case of `C[N+](C)(C)CCO.[Cl-]` [Choline, Choline Chloride], the “cellular ATP levels (anti-ATP antibody staining)” value in assay [6] is on record as “accumulation of ATP in the cellular nuclei”; in assay [3], “accumulation of ATP in the cellular nuclei”; in assay [5] (Example 2, FIG. 2 B, FIG. 7 A) it was “accumulation of ATP in the cellular nuclei”; in assay [5] (Example 2.1, Sham and UVB, FIG. 11), “accumulation of ATP in the cellular nuclei”. The GLUT1 protein level entry in assay [7] is listed as “equally increased”. The “RNA levels of PKM1, PKM2, MT-ATP6, MT-ATP8, SOD2, AKR1B1, HSPA2, TFPI2” value in assay [4] is “induced gene expression”. Further, the “RNA levels of CRYAB, HSPA2, ISYNA1” value in assay [4] was “induced gene expression of CRYAB, HSPA2 and ISYNA1”.
